Results: patent publication US6677316B2, “Adenosine derivatives and methods of administration” (SmithKline Beecham Corporation, priority 1998, dated 2004)

Key:
[1] = biological target: T1, human adenosine A1 receptor (Homo sapiens, UniProt P30542); assay: Reporter gene assay (CRE/SPAP) in CHO cells, agonist potency relative to NECA, adenosine A1 receptor; type: cell-based; design: key: equipotent concentration ratio, NECA = 1; details: ECR = equipotent concentration ratio relative to NECA = 1, inhibition of forskolin-stimulated SPAP production
T1 construct: expressed in transfected cells; host or cells: Chinese hamster ovary (CHO) cells with CRE/SPAP/HYG reporter elements
T1 sequence (P30542 1-326): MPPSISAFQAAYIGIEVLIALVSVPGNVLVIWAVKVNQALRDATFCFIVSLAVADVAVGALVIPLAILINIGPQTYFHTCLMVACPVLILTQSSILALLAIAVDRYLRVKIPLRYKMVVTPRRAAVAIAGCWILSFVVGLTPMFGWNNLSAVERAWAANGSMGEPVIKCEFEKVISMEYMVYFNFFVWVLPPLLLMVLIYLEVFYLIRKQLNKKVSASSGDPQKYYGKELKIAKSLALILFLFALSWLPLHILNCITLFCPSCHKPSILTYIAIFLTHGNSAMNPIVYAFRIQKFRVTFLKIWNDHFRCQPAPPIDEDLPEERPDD
Procedure: (§1) Reporter Gene Experiments
(§2) Agonist activity was measured in Chinese hamster ovary (CHO) cells containing the CRE/SPAP/HYG (CRE=cyclic AMP response element; HYG=hygromycin resistance; SPAP=secreted placental alkaline phosphatase) reporter gene elements, which upon stimulation of cAMP levels produced SPAP. A cell line was used, which was stably transfected with either the human adenosine A1 receptor or the human adenosine A3 receptor in addition to the above elements. Cells were plated out in 96-well plates in culture medium and incubated at 37° C. for 1 hour. For measurement of potency, agonists were added to the appropriate wells at a concentration range of approximately 10^−10- 10^−5M. 15Min later, cAMP levels were stimulated by addition of a maximal concentration of forskolin. All cells were then incubated for a further 5 hours at 37° C., and cooled to room temperature, after which a substrate for the phosphatase (para-nitrophenol phosphate, pNPP), which is converted by SPAP to a coloured reagent) was then added and the 96-well -plates were read in a plate reader. From these readings, the concentration-dependence of the inhibition by the agonist for forskolin-stimulated SPAP production can be calculated. One of the agonists tested on each 96-well plate was the standard non-selective agonist, N-ethylcarboxamidoadenosine (NECA), and the potency of all test agonists is expressed relative to that of the NECA standard.
(§3) (ECR=equipotent concentration ratio relative to NECA=1)

[2] = biological target: T2, human adenosine A3 receptor (Homo sapiens, UniProt P0DMS8); assay: Reporter gene assay (CRE/SPAP) in CHO cells, agonist potency relative to NECA, adenosine A3 receptor; type: cell-based; design: key: equipotent concentration ratio, NECA = 1; details: ECR = equipotent concentration ratio relative to NECA = 1, inhibition of forskolin-stimulated SPAP production
T2 construct: expressed in transfected cells; host or cells: Chinese hamster ovary (CHO) cells with CRE/SPAP/HYG reporter elements
T2 sequence (P0DMS8 1-318): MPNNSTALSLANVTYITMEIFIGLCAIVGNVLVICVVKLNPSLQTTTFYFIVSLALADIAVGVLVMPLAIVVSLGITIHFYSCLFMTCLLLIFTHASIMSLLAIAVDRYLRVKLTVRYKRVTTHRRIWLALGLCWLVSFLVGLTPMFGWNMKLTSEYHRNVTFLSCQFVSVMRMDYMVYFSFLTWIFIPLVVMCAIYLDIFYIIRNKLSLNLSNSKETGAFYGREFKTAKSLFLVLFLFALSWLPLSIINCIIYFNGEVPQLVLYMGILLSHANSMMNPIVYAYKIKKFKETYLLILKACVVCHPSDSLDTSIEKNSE
Procedure: as §1, §2, §3

Row | Adenosine A1 receptor ECR* [1] | Adenosine A3 receptor ECR* [2] | Compound
1 | 5.8 | 1066.71 | CC(C)(C)c1nnc([C@H]2O[C@@H](n3cnc4c(Nc5ccc(Cl)cc5F)ncnc43)[C@H](O)[C@@H]2O)o1 [Example 14, (2S,3S,4R,5R)-2-(5-tert-Butyl-[1,3,4]oxadiazol-2-yl)-5-[6-(4-chloro-2-fluoro-phenylamino)-purin-9-yl]-tetrahydro-furan-3,4-diol]
2 | 4.3 | – | O[C@@H]1[C@H](O)[C@@H](c2cc(Br)no2)O[C@H]1n1cnc2c(Nc3ccc(Cl)cc3F)ncnc21 [Example 164, (2S,3S,4R,5R)-2-(3-bromoisoxazol-5-yl)-5-[6-(4-chloro-2-fluoroanilino)-9H-purin-9-yl]tetrahydrofuran-3,4-diol]
3 | 4.19 | 507 | CCOC(=O)N1CCC(Nc2ncnc3c2ncn3[C@@H]2O[C@H](c3nc(C)no3)[C@@H](O)[C@H]2O)CC1 [Example 37, ethyl 4-({9-[(2R,3R,4S,5S)-3,4-dihydroxy-5-(3-methyl-1,2,4-oxadiazol-5-yl)tetrahydrofuran-2-yl]-9H-purin-6-yl}amino)piperidine-1-carboxylate]
4 | 0.48 | – | CCc1cc([C@H]2O[C@@H](n3cnc4c(NC5CCOCC5)ncnc43)[C@H](O)[C@@H]2O)on1 [Example 135, (2S,3S,4R,5R)-2-(3-ethylisoxazol-5-yl)-5-[6-(tetrahydro-2H-pyran-4-ylamino)-9H-purin-9-yl]tetrahydrofuran-3,4-diol]
5 | 19.6 | >74.1 | Cc1cnc([C@H]2O[C@@H](n3cnc4c(Nc5ccc(F)cc5Cl)nc(Cl)nc43)[C@H](O)[C@@H]2O)o1 [Example 143, (2R,3R,4S,5S)-2-[2-chloro-6-(2-chloro-4-fluoroanilino)-9H-purin-9-yl]-5-(5-methyl-1,3-oxazol-2-yl)tetrahydrofuran-3,4-diol]
6 | 7.68 | 165.54 | CC(C)(C)c1noc([C@H]2O[C@@H](n3cnc4c(NCC5CC5)ncnc43)[C@H](O)[C@@H]2O)n1 [Example 44, (2S,3S,4 R,5R)-2-[3-(tert-butyl)-1,2,4-oxadiazol-5-yl]-5-{6-[(cyclopropylmethyl)amino]-9H-purin-9-yl}tetrahydrofuran-3,4-diol]
7 | 9.6 | 201 | CCc1cnc([C@H]2O[C@@H](n3cnc4c(NC5CCOCC5)ncnc43)[C@H](O)[C@@H]2O)o1 [Example 16, (2S,3S,4R,5R)-2-(5-Ethyl-oxazol-2-yl)-5-[6-(tetrahydro-pyran-4-ylamino)-purin-9-yl]-tetrahydro-furan-3,4-diol]
8 | 24.9 | – | CCCc1cc([C@H]2O[C@@H](n3cnc4c(Nc5ccc(Cl)cc5F)ncnc43)[C@H](O)[C@@H]2O)on1 [Example 145, (2R,3R,4S,5S)-2-[6-(4-chloro-2-fluoroanilino)-9H-purin-9-yl]-5-(3-propylisoxazol-5-yl)tetrahydrofuran-3,4-diol]
9 | 12.08 | 228 | CC(C)c1nnc([C@H]2O[C@@H](n3cnc4c(NC5CCOCC5)ncnc43)[C@H](O)[C@@H]2O)[nH]1 [Example 141, (2R,3S,4R,5R)-2-(5-isopropyl-4H-1,2,4-triazol-3-yl)-5-[6-(tetrahydro-2H-pyran-4-ylamino)-9H-purin-9-yl]tetrahydrofuran-3,4-diol]
10 | 1.95 | – | CCc1cc([C@H]2O[C@@H](n3cnc4c(N[C@H]5CCC[C@@H]5O)ncnc43)[C@H](O)[C@@H]2O)on1 [Example 136, (2S,3S,4R,5R)-2-(3-ethylisoxazol-5-yl)-5-(6-{[(1S,2S)-2-hydroxycyclopentyl]amino}-9H-purin-9-yl)tetrahydrofuran-3,4-diol]
11 | 4.19 | 325.44 | CCNS(=O)(=O)CCNc1ncnc2c1ncn2[C@@H]1O[C@H](c2nnc(C(C)(C)C)o2)[C@@H](O)[C@H]1O [Example 123, 2-[(9-{(2R,3 R,4S,5S)-5-[5-(tert-butyl)-1,3,4-oxadiazol-2-yl]-3,4-dihydroxytetrahydrofuran-2-yl}-9H-purin-6-yl)amino]-N-ethylethanesulfonamide]
12 | 1.71 | 134 | CC(C)c1nnc([C@H]2O[C@@H](n3cnc4c(NC5CCOCC5)ncnc43)[C@H](O)[C@@H]2O)o1 [Example 6, (2S,3S,4R,5R)-2-(5-Isopropyl-[1,3,4]oxadiazol-2-yl)-5-[6-(tetrahydro-pyran-4-ylamino)-purin-9-yl]-tetrahydro-furan-3,4-diol]
13 | 13.9 | – | Cc1cccc(NS(=O)(=O)CCNc2ncnc3c2ncn3[C@@H]2O[C@H](c3nnc(C(C)(C)C)o3)[C@@H](O)[C@H]2O)c1 [Example 126, 2-[(9-{(2R,3R,4S,5S)-5-[5-(tert-butyl)-1,3,4-oxadiazol-2-yl]-3,4-dihydroxytetrahydrofuran-2-yl}-9H-purin-6-yl)amino]-N-(3-methylphenyl)ethanesulfonamide]
14 | 1.31 | – | CCOC(=O)N1CCC(Nc2ncnc3c2ncn3[C@@H]2O[C@H](c3cc(CC)no3)[C@@H](O)[C@H]2O)CC1 [Example 138, ethyl 4-({9-[(2R,3R,4S,5S)-5-(3-ethylisoxazol-5-yl)-3,4-dihydroxytetrahydrofuran-2-yl]-9H-purin-6-yl}amino)piperidine-1-carboxylate]
15 | 2.8 | – | Cc1cc([C@H]2O[C@@H](n3cnc4c(Nc5ccc(Cl)cc5F)ncnc43)[C@H](O)[C@@H]2O)on1 [Example 144, (2R,3R,4S,5S)-2-[6-(4-chloro-2-fluoroanilino)-9H-purin-9-yl]-5-(3-methylisoxazol-5-yl)tetrahydrofuran-3,4-diol]

Row | Compound | Adenosine A1 receptor ECR* [1] | Adenosine A3 receptor ECR* [2]
16 | Cc1nnc([C@H]2O[C@@H](n3cnc4c(Nc5ccc(Cl)cc5F)ncnc43)[C@H](O)[C@@H]2O)o1 [Example 181] | 8.57 | –
17 | CCOC(=O)N1CCC(Nc2ncnc3c2ncn3[C@@H]2O[C@H](c3nnc(C(F)(F)F)o3)[C@@H](O)[C@H]2O)CC1 [Example 180, ethyl 4-[(9-{(2R,3R,4S,5S)-3,4-dihydroxy-5-[5-(trifluoromethyl)-1,3,4-oxadiazol-2-yl]-tetrahydrofuran-2-yl}-9H-purin-6-yl)amino]-piperidine-1-carboxylate] | 18.1 | >471
18 | CCNS(=O)(=O)CCNc1ncnc2c1ncn2[C@@H]1O[C@H](c2cc(C(C)(C)C)no2)[C@@H](O)[C@H]1O [Example 177, 2-[(9-{(2R,3R,4S,5S)-5-[3-(tert-butyl)isoxazol-5-yl]-3,4-dihydroxy-tetrahydrofuran-2-yl}-9H-purin-6-yl)amino]-N-ethylethane-sulfonamide] | 2.01 | 122
19 | O[C@@H]1[C@H](O)[C@@H](c2nnc(C(F)(F)F)o2)O[C@H]1n1cnc2c(N[C@H]3CCC[C@@H]3O)ncnc21 [Example 179, (2R,3R,4S,5S)-2-(6-{[(1S,2S)-2-hydroxy-cyclopentyl]-amino}-9H-purin-9-yl)-5-[5-(trifluoromethyl)-1,3,4-oxadiazol-2-yl]-tetrahydrofuran-3,4-diol] | 12.6 | –
20 | O[C@@H]1[C@H](O)[C@@H](c2cc(C3CC3)no2)O[C@H]1n1cnc2c(Nc3ccc(Cl)cc3F)ncnc21 [Example 182, (2R,3R,4S,5S)-2-[6-(4-chloro-2-fluoroanilino)-9H-purin-9-yl]-5-(3-cyclopropyl-isoxazol-5-yl)-tetrahydrofuran-3,4-diol] | 3.48 | –
